Drawing on patent publication US10160755B2 (Plexxikon Inc., priority 2015, dated 2018), this text covers IC50 and GI50 for 16 molecules.

One assay concerns the target c-Kit (Homo sapiens, UniProt P10721). As to the kind of experiment: c-Kit biochemical assay (per US 2007/0032519). In outline:
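Biochemical kinase inhibition run per US 2007/0032519; values reported as binned IC50 ranges (0.0001–1 μM, 1–10 μM, 10–200 μM).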

In assay [1] the target is T1, BA/F3-FLT3-ITD + F691L cells (Homo sapiens, UniProt P36888, F691L, cells depend on it, form not given).
T1 sequence (P36888 1-993 F691L): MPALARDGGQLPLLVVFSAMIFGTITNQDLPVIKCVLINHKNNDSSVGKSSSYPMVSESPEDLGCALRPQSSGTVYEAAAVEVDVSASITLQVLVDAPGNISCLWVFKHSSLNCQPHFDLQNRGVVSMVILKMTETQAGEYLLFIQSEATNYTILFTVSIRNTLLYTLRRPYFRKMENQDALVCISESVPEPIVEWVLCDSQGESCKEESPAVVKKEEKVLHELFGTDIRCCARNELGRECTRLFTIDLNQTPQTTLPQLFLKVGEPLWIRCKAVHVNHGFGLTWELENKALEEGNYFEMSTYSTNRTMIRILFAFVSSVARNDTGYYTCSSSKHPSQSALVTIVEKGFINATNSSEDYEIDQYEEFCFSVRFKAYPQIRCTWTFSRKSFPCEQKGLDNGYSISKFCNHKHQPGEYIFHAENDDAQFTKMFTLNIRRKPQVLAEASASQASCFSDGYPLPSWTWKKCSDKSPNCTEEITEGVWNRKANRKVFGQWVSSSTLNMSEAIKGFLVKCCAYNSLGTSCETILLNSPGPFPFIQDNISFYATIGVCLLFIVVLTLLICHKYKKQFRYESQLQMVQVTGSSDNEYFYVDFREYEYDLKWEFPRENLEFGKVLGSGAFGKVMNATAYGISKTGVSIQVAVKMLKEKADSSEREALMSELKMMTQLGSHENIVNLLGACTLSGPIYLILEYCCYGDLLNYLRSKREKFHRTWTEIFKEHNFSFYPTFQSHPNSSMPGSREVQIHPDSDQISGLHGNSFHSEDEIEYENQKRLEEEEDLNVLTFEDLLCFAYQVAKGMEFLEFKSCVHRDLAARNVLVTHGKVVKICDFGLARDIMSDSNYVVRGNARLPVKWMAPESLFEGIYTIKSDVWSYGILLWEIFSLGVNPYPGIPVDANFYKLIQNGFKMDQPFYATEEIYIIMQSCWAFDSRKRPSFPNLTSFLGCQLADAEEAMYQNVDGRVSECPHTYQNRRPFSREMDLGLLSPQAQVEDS
The assay can be described thus: BA/F3-FLT3-ITD + F691L cell proliferation assay (CellTiter-Glo). It is filed as cell-based, murine. The following applies: BaF3 FLT3 ITD/F691L cells; read-out: Cell Activity (IC50 μM) BaF3_FLT3_ITD/F691L. In outline:
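Three-day growth assay, IC50 from CellTiter-Glo ATP luminescence vs concentration. Compounds at 10 to 0.0046 μM (1:3 steps, final DMSO 0.2%) on 1×10^4 cells/well. Cells are IL-3-independent BA/F3 lines engineered to express full-length FLT3-ITD with the D835Y or the F691L mutation.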

In general, IC50 refers to the concentration at which inhibition is half-maximal.

Sequence of c-Kit (P10721 26-976): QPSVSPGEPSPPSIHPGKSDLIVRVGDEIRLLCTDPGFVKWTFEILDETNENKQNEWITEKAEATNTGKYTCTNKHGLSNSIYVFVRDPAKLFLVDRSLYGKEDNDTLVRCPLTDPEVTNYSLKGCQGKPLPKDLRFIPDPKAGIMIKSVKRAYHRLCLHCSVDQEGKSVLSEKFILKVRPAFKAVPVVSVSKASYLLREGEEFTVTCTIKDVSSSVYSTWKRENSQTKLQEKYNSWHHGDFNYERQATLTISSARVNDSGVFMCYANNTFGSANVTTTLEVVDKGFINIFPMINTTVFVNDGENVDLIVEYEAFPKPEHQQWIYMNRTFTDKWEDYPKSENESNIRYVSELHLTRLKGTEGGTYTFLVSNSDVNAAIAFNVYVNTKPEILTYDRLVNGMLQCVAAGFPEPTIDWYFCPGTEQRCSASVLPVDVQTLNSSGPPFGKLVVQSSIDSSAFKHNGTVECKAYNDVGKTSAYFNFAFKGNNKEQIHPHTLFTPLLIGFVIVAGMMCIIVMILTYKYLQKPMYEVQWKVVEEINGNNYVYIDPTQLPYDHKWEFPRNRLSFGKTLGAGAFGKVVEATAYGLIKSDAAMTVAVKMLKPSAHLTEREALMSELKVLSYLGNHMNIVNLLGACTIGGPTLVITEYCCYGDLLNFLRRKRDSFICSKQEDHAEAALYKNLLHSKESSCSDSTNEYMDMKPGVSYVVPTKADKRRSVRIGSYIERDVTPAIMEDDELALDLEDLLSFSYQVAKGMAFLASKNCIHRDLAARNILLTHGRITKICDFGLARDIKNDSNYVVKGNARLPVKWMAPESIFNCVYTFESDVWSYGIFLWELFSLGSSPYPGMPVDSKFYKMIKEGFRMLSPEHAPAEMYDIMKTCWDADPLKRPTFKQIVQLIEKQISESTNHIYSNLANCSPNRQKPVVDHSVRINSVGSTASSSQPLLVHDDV

Consider `COc1cnc2[nH]cc(-c3ccc4ncn(C(C)(C)C)c4c3)c2c1` [P-074, 1-tert-butyl-6-(5-methoxy-1H-pyrrolo[2,3-b]pyridin-3-yl)benzimidazole], for which the half-maximal inhibitory concentration (IC50) against c-Kit is 1 to 10 µM. In addition, the GI50 in assay [1] lay in the range of 0.0001 to 1 µM.

At c-Kit, `CC(C)(C)n1cnc2ccc(-c3c[nH]c4ncc(-c5cnc(O)nc5)nc34)cc21` [P-363, 5-[7-(3-tert-butylbenzimidazol-5-yl)-5H-pyrrolo[2,3-b]pyrazin-2-yl]pyrimidin-2-ol] gave a 50% inhibitory concentration (IC50) of 1 to 10 µM. In addition, in assay [1], the GI50 is 0.0001 to 1 µM.

As for `CC(C)(C)n1cnc2ccc(-c3c[nH]c4ncc(-c5cnc(C#N)nc5)nc34)cc21` [P-352, 5-[7-(3-tert-butylbenzimidazol-5-yl)-5H-pyrrolo[2,3-b]pyrazin-2-yl]pyrimidine-2-carbonitrile], at c-Kit, the IC50 lay in the range of 10 to 200 µM. Moreover, in assay [1], the GI50 is 0.0001 to 1 µM.

`CC(C)(O)c1ncc(-c2cnc3[nH]cc(-c4ccc5ncn(C(C)(C)C)c5c4)c3n2)cn1` [P-380, 2-[5-[7-(3-tert-butylbenzimidazol-5-yl)-5H-pyrrolo[2,3-b]pyrazin-2-yl]pyrimidin-2-yl]propan-2-ol] registered an IC50 against c-Kit of 1 to 10 µM. In addition, the GI50 in assay [1] was 0.0001 to 1 µM.

`CC(C)(C)n1cnc2ccc(-c3c[nH]c4ncc(-c5cnc(F)c(F)c5)nc34)cc21` [P-390, 7-(3-tert-butylbenzimidazol-5-yl)-2-(5,6-difluoro-3-pyridyl)-5H-pyrrolo[2,3-b]pyrazine] gave an IC50 on c-Kit of 10 to 200 µM. In addition, in assay [1], the GI50 fell in the range of 0.0001 to 1 µM.

Molecule `Cc1ccc(-c2cnc3[nH]cc(-c4ccc5ncn(C(C)(C)C)c5c4)c3n2)cn1` [P-388, 7-(3-tert-butylbenzimidazol-5-yl)-2-(6-methyl-3-pyridyl)-5H-pyrrolo[2,3-b]pyrazine] showed an IC50 against c-Kit of 0.0001 to 1 µM. The GI50 in assay [1] lay within 0.0001 to 1 µM.

Regarding `COc1ncc(-c2cnc3[nH]cc(-c4ccc5ncn(C(C)(C)C)c5c4)c3n2)cc1C#N` [P-405, 5-[7-(3-tert-butylbenzimidazol-5-yl)-5H-pyrrolo[2,3-b]pyrazin-2-yl]-2-methoxy-pyridine-3-carbonitrile], on c-Kit, the IC50 was 10 to 200 µM. Also, in assay [1], the GI50 fell in the range of 0.0001 to 1 µM.

In turn, `COc1cnc2[nH]cc(-c3ccc4ncn(C5CCC5)c4c3)c2c1` [P-061, 1-cyclobutyl-6-(5-methoxy-1H-pyrrolo[2,3-b]pyridin-3-yl)benzimidazole] yielded an IC50 at c-Kit of 1 to 10 µM. Besides, the GI50 in assay [1] was 0.0001 to 1 µM.

Regarding `COc1cnc2[nH]cc(-c3ccc4ncn(-c5ccccc5)c4c3)c2c1` [P-068, 5-methoxy-3-(3-phenylbenzimidazol-5-yl)-1H-pyrrolo[2,3-b]pyridine], the IC50 on c-Kit lay within 10 to 200 µM. The GI50 in assay [1] is 0.0001 to 1 µM.

Take `CC(C)(C)n1cnc2ccc(-c3c[nH]c4ncc(-c5ccnc(C#N)c5)nc34)cc21` [P-301, 4-[7-(3-tert-butylbenzimidazol-5-yl)-5H-pyrrolo[2,3-b]pyrazin-2-yl]pyridine-2-carbonitrile]: on c-Kit, the IC50 was in the range of 10 to 200 µM. The GI50 in assay [1] is 0.0001 to 1 µM.

On to `COc1cc(-c2cnc3[nH]cc(-c4ccc5ncn(C(C)(C)C)c5c4)c3c2)c(OC)nn1` [P-292, 1-tert-butyl-6-[5-(3,6-dimethoxypyridazin-4-yl)-1H-pyrrolo[2,3-b]pyridin-3-yl]benzimidazole], for which, in assay [1], the GI50 lay in the range of 0.0001 to 1 µM.

For the molecule `CC(C)(C)n1cnc2ccc(-c3c[nH]c4ncc(-c5cccc(N6CCCS6(=O)=O)c5)cc34)cc21` [P-278, 2-[3-[3-(3-tert-butylbenzimidazol-5-yl)-1H-pyrrolo[2,3-b]pyridin-5-yl]phenyl]-1,2-thiazolidine 1,1-dioxide], in assay [1], the GI50 was in the range of 0.0001 to 1 µM.

As for `CCN1CCN(c2cc(-c3cnc4[nH]cc(-c5ccc6ncn(C7CCCNC7)c6c5)c4n3)ccn2)CC1` (centres unmarked) [P-327, 2-[2-(4-ethylpiperazin-1-yl)-4-pyridyl]-7-[3-(3-piperidyl)benzimidazol-5-yl]-5H-pyrrolo[2,3-b]pyrazine], in assay [1], the GI50 is 0.0001 to 1 µM.

As to `COc1cnc2[nH]cc(-c3ccc4ncn(C5CCCNC5)c4c3)c2c1` (centres unmarked) [P-079, 5-methoxy-3-[3-(3-piperidyl)benzimidazol-5-yl]-1H-pyrrolo[2,3-b]pyridine], the GI50 in assay [1] is 0.0001 to 1 µM.

Consider `Cc1cc(C#Cc2cnc3[nH]cc(-c4ccc5ncn(C(C)(C)C)c5c4)c3n2)cc(C)n1` [P-282, 7-(3-tert-butylbenzimidazol-5-yl)-2-[2-(2,6-dimethyl-4-pyridyl)ethynyl]-5H-pyrrolo[2,3-b]pyrazine], for which the GI50 in assay [1] was 0.0001 to 1 µM.

For `CN1CCN(c2cccc(-c3cnc4[nH]cc(-c5ccc6ncn(C(C)(C)C)c6c5)c4n3)c2)CC1` [P-331, 7-(3-tert-butylbenzimidazol-5-yl)-2-[3-(4-methylpiperazin-1-yl)phenyl]-5H-pyrrolo[2,3-b]pyrazine], the GI50 in assay [1] lay within 0.0001 to 1 µM.
